# In patent US6465490B1, “Sulfuric acid mono-[3({1-[2-(4-fluoro-phenyl)-ethyl]-piperidin-4-yl}-hydroxy-methyl)-2-methoxy-phenyl]ester” (Aventis Pharmaceuticals Inc., priority 1999, dated 2002):
# Test: Bovine Brain Endothelial Cells (BBMEC) transport studies, in vitro blood-brain barrier permeability
# Type: in vitro ADME
# Details: mean ± standard deviation
# Experimental: The compounds of this invention are capable of crossing the blood-brain barrier (BBB) as shown by their ability to penetrate across a membrane of a monolayer of bovine brain microvessel endothelial cells, an in vitro model for B3B permeability.
# Bovine Brain Endothelial Cells (BBMEC) TIransport Studies
# The procedure was performed according to: Kenneth L. Audus et al., Brain Microvessel Endothelial Cell Culture System (Chapter 13) pp 239-258. In Models for Assessing Drug Absorption and Metabolism, Ronald T. Borchardt et al. eds., Plenum Press, New York 1996, incorporated herein by reference.
smiles,measurement,setting,value
"COc1c(O[Si](C(C)C)(C(C)C)C(C)C)cccc1C(OC(=O)[C@@H](OC)c1ccccc1)C1CCN(CCc2ccc(F)cc2)CC1 (stereo partly drawn) [Example 1C, (S)-Methoxy-2-phenyl-acetic acid {1-[2-(4-fluoro-phenyl)-ethyl]-piperidin-4-yl}-(2-methoxy-3-triisopropylsilanyloxy-phenyl)-methyl ester]",Papp at 5.4 µM,5.4 μM,41.4 ± 16.4 ×10⁻⁶ cm/s
same,Papp at 16 µM,16 μM,52.5 ± 9.5 ×10⁻⁶ cm/s
